Experimental data as given in the NIST ThermoML archive (doi:10.1021/acs.jced.6b00606).
± gives the expanded uncertainty stated by the source.

Experiment: xn = mol fraction of the nth substance listed
Conditions: 100 kPa, Liquid; for speed of sound: Frequency=3 MHz, Sing-around technique in a fixed-path interferometer; for mass density: Vibrating tube method

O=C1CCCCCC1 [cycloheptanone] + C1CCOCC1
speed of sound (293.15 K, x2 = 0.0845): 1457.2 ± 1.6 m/s | speed of sound (293.15 K, x2 = 0.1276): 1447.3 ± 1.6 m/s | speed of sound (293.15 K, x2 = 0.1794): 1435.5 ± 1.6 m/s | speed of sound (293.15 K, x2 = 0.2172): 1427.2 ± 1.6 m/s | speed of sound (293.15 K, x2 = 0.254): 1419.2 ± 1.6 m/s | speed of sound (293.15 K, x2 = 0.3098): 1407.4 ± 1.5 m/s | speed of sound (293.15 K, x2 = 0.341): 1400.9 ± 1.5 m/s | speed of sound (293.15 K, x2 = 0.3982): 1389.4 ± 1.5 m/s | speed of sound (293.15 K, x2 = 0.4407): 1381.2 ± 1.5 m/s | speed of sound (293.15 K, x2 = 0.4986): 1370.2 ± 1.5 m/s | speed of sound (293.15 K, x2 = 0.5312): 1364.3 ± 1.5 m/s | speed of sound (293.15 K, x2 = 0.5779): 1355.9 ± 1.5 m/s | speed of sound (293.15 K, x2 = 0.6295): 1347.1 ± 1.5 m/s | speed of sound (293.15 K, x2 = 0.6717): 1340.1 ± 1.4 m/s | speed of sound (293.15 K, x2 = 0.7229): 1331.9 ± 1.4 m/s | speed of sound (293.15 K, x2 = 0.7686): 1324.8 ± 1.4 m/s | speed of sound (293.15 K, x2 = 0.8202): 1317.2 ± 1.4 m/s | speed of sound (293.15 K, x2 = 0.8742): 1309.5 ± 1.4 m/s | mass density (293.15 K, x2 = 0.0845): 948.05 ± 1 kg/m3 | mass density (293.15 K, x2 = 0.1276): 946.02 ± 1 kg/m3 | mass density (293.15 K, x2 = 0.1794): 943.48 ± 1 kg/m3 | mass density (293.15 K, x2 = 0.2172): 941.57 ± 1 kg/m3 | mass density (293.15 K, x2 = 0.254): 939.66 ± 1 kg/m3 | mass density (293.15 K, x2 = 0.3098): 936.64 ± 1 kg/m3 | mass density (293.15 K, x2 = 0.341): 934.9 ± 1 kg/m3 | mass density (293.15 K, x2 = 0.3982): 931.59 ± 1 kg/m3 | mass density (293.15 K, x2 = 0.4407): 929.02 ± 1 kg/m3 | mass density (293.15 K, x2 = 0.4986): 925.38 ± 1 kg/m3 | mass density (293.15 K, x2 = 0.5312): 923.24 ± 1 kg/m3 | mass density (293.15 K, x2 = 0.5779): 920.07 ± 1 kg/m3 | mass density (293.15 K, x2 = 0.6295): 916.42 ± 1 kg/m3 | mass density (293.15 K, x2 = 0.6717): 913.29 ± 1 kg/m3 | mass density (293.15 K, x2 = 0.7229): 909.34 ± 1 kg/m3 | mass density (293.15 K, x2 = 0.7686): 905.66 ± 1 kg/m3 | mass density (293.15 K, x2 = 0.8202): 901.28 ± 1 kg/m3 | mass density (293.15 K, x2 = 0.8742): 896.48 ± 1 kg/m3 | speed of sound (298.15 K, x2 = 0.0845): 1435 ± 1.6 m/s | speed of sound (298.15 K, x2 = 0.1276): 1424.9 ± 1.6 m/s | speed of sound (298.15 K, x2 = 0.1794): 1413 ± 1.6 m/s | speed of sound (298.15 K, x2 = 0.2172): 1404.5 ± 1.6 m/s | speed of sound (298.15 K, x2 = 0.254): 1396.5 ± 1.6 m/s | speed of sound (298.15 K, x2 = 0.3098): 1384.5 ± 1.5 m/s | speed of sound (298.15 K, x2 = 0.341): 1378 ± 1.5 m/s | speed of sound (298.15 K, x2 = 0.3982): 1366.4 ± 1.5 m/s | speed of sound (298.15 K, x2 = 0.4407): 1358 ± 1.5 m/s | speed of sound (298.15 K, x2 = 0.4986): 1346.9 ± 1.5 m/s | speed of sound (298.15 K, x2 = 0.5312): 1340.9 ± 1.5 m/s | speed of sound (298.15 K, x2 = 0.5779): 1332.6 ± 1.5 m/s | speed of sound (298.15 K, x2 = 0.6295): 1323.7 ± 1.5 m/s | speed of sound (298.15 K, x2 = 0.6717): 1316.6 ± 1.4 m/s | speed of sound (298.15 K, x2 = 0.7229): 1308.4 ± 1.4 m/s | speed of sound (298.15 K, x2 = 0.7686): 1301.4 ± 1.4 m/s | speed of sound (298.15 K, x2 = 0.8202): 1293.7 ± 1.4 m/s | speed of sound (298.15 K, x2 = 0.8742): 1286.1 ± 1.4 m/s | mass density (298.15 K, x2 = 0.0845): 943.9 ± 1 kg/m3 | mass density (298.15 K, x2 = 0.1276): 941.88 ± 1 kg/m3 | mass density (298.15 K, x2 = 0.1794): 939.35 ± 1 kg/m3 | mass density (298.15 K, x2 = 0.2172): 937.43 ± 1 kg/m3 | mass density (298.15 K, x2 = 0.254): 935.51 ± 1 kg/m3 | mass density (298.15 K, x2 = 0.3098): 932.46 ± 1 kg/m3 | mass density (298.15 K, x2 = 0.341): 930.72 ± 1 kg/m3 | mass density (298.15 K, x2 = 0.3982): 927.36 ± 1 kg/m3 | mass density (298.15 K, x2 = 0.4407): 924.78 ± 1 kg/m3 | mass density (298.15 K, x2 = 0.4986): 921.12 ± 1 kg/m3 | mass density (298.15 K, x2 = 0.5312): 918.96 ± 1 kg/m3 | mass density (298.15 K, x2 = 0.5779): 915.78 ± 1 kg/m3 | mass density (298.15 K, x2 = 0.6295): 912.11 ± 1 kg/m3 | mass density (298.15 K, x2 = 0.6717): 908.95 ± 1 kg/m3 | mass density (298.15 K, x2 = 0.7229): 904.97 ± 1 kg/m3 | mass density (298.15 K, x2 = 0.7686): 901.22 ± 1 kg/m3 | mass density (298.15 K, x2 = 0.8202): 896.77 ± 1 kg/m3 | mass density (298.15 K, x2 = 0.8742): 891.84 ± 1 kg/m3 | speed of sound (303.15 K, x2 = 0.0845): 1411.9 ± 1.6 m/s | speed of sound (303.15 K, x2 = 0.1276): 1401.8 ± 1.6 m/s | speed of sound (303.15 K, x2 = 0.1794): 1389.8 ± 1.6 m/s | speed of sound (303.15 K, x2 = 0.2172): 1381.3 ± 1.6 m/s | speed of sound (303.15 K, x2 = 0.254): 1373.2 ± 1.6 m/s | speed of sound (303.15 K, x2 = 0.3098): 1361.1 ± 1.5 m/s | speed of sound (303.15 K, x2 = 0.341): 1354.6 ± 1.5 m/s | speed of sound (303.15 K, x2 = 0.3982): 1342.9 ± 1.5 m/s | speed of sound (303.15 K, x2 = 0.4407): 1334.6 ± 1.5 m/s | speed of sound (303.15 K, x2 = 0.4986): 1323.6 ± 1.5 m/s | speed of sound (303.15 K, x2 = 0.5312): 1317.5 ± 1.5 m/s | speed of sound (303.15 K, x2 = 0.5779): 1309.2 ± 1.5 m/s | speed of sound (303.15 K, x2 = 0.6295): 1300.3 ± 1.4 m/s | speed of sound (303.15 K, x2 = 0.6717): 1293.3 ± 1.4 m/s | speed of sound (303.15 K, x2 = 0.7229): 1285.2 ± 1.4 m/s | speed of sound (303.15 K, x2 = 0.7686): 1278.2 ± 1.4 m/s | speed of sound (303.15 K, x2 = 0.8202): 1270.6 ± 1.4 m/s | speed of sound (303.15 K, x2 = 0.8742): 1263 ± 1.4 m/s | mass density (303.15 K, x2 = 0.0845): 939.65 ± 1 kg/m3 | mass density (303.15 K, x2 = 0.1276): 937.63 ± 1 kg/m3 | mass density (303.15 K, x2 = 0.1794): 935.11 ± 1 kg/m3 | mass density (303.15 K, x2 = 0.2172): 933.19 ± 1 kg/m3 | mass density (303.15 K, x2 = 0.254): 931.26 ± 1 kg/m3 | mass density (303.15 K, x2 = 0.3098): 928.23 ± 1 kg/m3 | mass density (303.15 K, x2 = 0.341): 926.47 ± 1 kg/m3 | mass density (303.15 K, x2 = 0.3982): 923.12 ± 1 kg/m3 | mass density (303.15 K, x2 = 0.4407): 920.53 ± 1 kg/m3 | mass density (303.15 K, x2 = 0.4986): 916.82 ± 1 kg/m3 | mass density (303.15 K, x2 = 0.5312): 914.66 ± 1 kg/m3 | mass density (303.15 K, x2 = 0.5779): 911.43 ± 1 kg/m3 | mass density (303.15 K, x2 = 0.6295): 907.7 ± 1 kg/m3 | mass density (303.15 K, x2 = 0.6717): 904.49 ± 1 kg/m3 | mass density (303.15 K, x2 = 0.7229): 900.41 ± 1 kg/m3 | mass density (303.15 K, x2 = 0.7686): 896.58 ± 1 kg/m3 | mass density (303.15 K, x2 = 0.8202): 892.03 ± 1 kg/m3 | mass density (303.15 K, x2 = 0.8742): 886.98 ± 1 kg/m3 | speed of sound (308.15 K, x2 = 0.0845): 1389.1 ± 1.6 m/s | speed of sound (308.15 K, x2 = 0.1276): 1378.9 ± 1.6 m/s | speed of sound (308.15 K, x2 = 0.1794): 1366.9 ± 1.6 m/s | speed of sound (308.15 K, x2 = 0.2172): 1358.4 ± 1.6 m/s | speed of sound (308.15 K, x2 = 0.254): 1350.2 ± 1.5 m/s | speed of sound (308.15 K, x2 = 0.3098): 1338.2 ± 1.5 m/s | speed of sound (308.15 K, x2 = 0.341): 1331.6 ± 1.5 m/s | speed of sound (308.15 K, x2 = 0.3982): 1319.9 ± 1.5 m/s | speed of sound (308.15 K, x2 = 0.4407): 1311.6 ± 1.5 m/s | speed of sound (308.15 K, x2 = 0.4986): 1300.6 ± 1.5 m/s | speed of sound (308.15 K, x2 = 0.5312): 1294.6 ± 1.5 m/s | speed of sound (308.15 K, x2 = 0.5779): 1286.3 ± 1.5 m/s | speed of sound (308.15 K, x2 = 0.6295): 1277.4 ± 1.4 m/s | speed of sound (308.15 K, x2 = 0.6717): 1270.5 ± 1.4 m/s | speed of sound (308.15 K, x2 = 0.7229): 1262.4 ± 1.4 m/s | speed of sound (308.15 K, x2 = 0.7686): 1255.4 ± 1.4 m/s | speed of sound (308.15 K, x2 = 0.8202): 1247.9 ± 1.4 m/s | speed of sound (308.15 K, x2 = 0.8742): 1240.4 ± 1.4 m/s | mass density (308.15 K, x2 = 0.0845): 935.43 ± 1 kg/m3 | mass density (308.15 K, x2 = 0.1276): 933.42 ± 1 kg/m3 | mass density (308.15 K, x2 = 0.1794): 930.88 ± 1 kg/m3 | mass density (308.15 K, x2 = 0.2172): 928.95 ± 1 kg/m3 | mass density (308.15 K, x2 = 0.254): 927.02 ± 1 kg/m3 | mass density (308.15 K, x2 = 0.3098): 923.95 ± 1 kg/m3 | mass density (308.15 K, x2 = 0.341): 922.18 ± 1 kg/m3 | mass density (308.15 K, x2 = 0.3982): 918.8 ± 1 kg/m3 | mass density (308.15 K, x2 = 0.4407): 916.18 ± 1 kg/m3 | mass density (308.15 K, x2 = 0.4986): 912.46 ± 1 kg/m3 | mass density (308.15 K, x2 = 0.5312): 910.27 ± 1 kg/m3 | mass density (308.15 K, x2 = 0.5779): 907.03 ± 1 kg/m3 | mass density (308.15 K, x2 = 0.6295): 903.26 ± 1 kg/m3 | mass density (308.15 K, x2 = 0.6717): 900.02 ± 1 kg/m3 | mass density (308.15 K, x2 = 0.7229): 895.9 ± 1 kg/m3 | mass density (308.15 K, x2 = 0.7686): 892.03 ± 1 kg/m3 | mass density (308.15 K, x2 = 0.8202): 887.39 ± 1 kg/m3 | mass density (308.15 K, x2 = 0.8742): 882.23 ± 1 kg/m3
